Source: paper PMC8640094, “Diaportones A–C: Three New Metabolites From Endophytic Fungus Diaporthe foeniculina BZM-15” (Frontiers in Chemistry, 2021)

Legend:
[1] = test system: normal cell line LX-2; experiment: MTT cytotoxicity assay, normal cell line LX-2; type: cell-based; settings: 72 h; for inhibition at 1 µM: LX-2, c 1.00 μM; for inhibition at 1 µM / inhibition at 2 µM / inhibition at 4 µM / inhibition at 8 µM / inhibition at 16 µM / inhibition at 32 µM / inhibition at 64 µM / inhibition at 128 µM: three replicates; for inhibition at 2 µM: LX-2, c 2.00 μM; for inhibition at 4 µM: LX-2, c 4.00 μM; for inhibition at 8 µM: LX-2, c 8.00 μM; for inhibition at 16 µM: LX-2, c 16.00 μM; for inhibition at 32 µM: LX-2, c 32.00 μM; for inhibition at 64 µM: LX-2, c 64.00 μM; for inhibition at 128 µM: LX-2, c 128.00 μM; for IC50: MTT, mean ± SD (n = 3)
Protocol: (§1) The cytotoxicity of all compounds against three human tumor cell lines, SF-268 (CNS cancer), MCF-7 (breast cancer), and HepG2 (hepatoma cancer), and normal cell line LX-2 was tested using the MTT assay. […] All cells were seeded into 96-well plates at 5 × 10^4 cells/ml and incubated at 37°C under a 5% CO2 atmosphere for 24 h. Then, the tested compounds were added. After 72 h, MTT solution was added into each well, which was further incubated. The cell-free supernatant was removed and formazan crystals were subsequently dissolved in DMSO. Optical density (OD) was recorded at 490 nm on a microplate reader to calculate the IC50 values.

[2] = test system: SF-268 (CNS cancer); experiment: MTT cytotoxicity assay, SF-268 cells; type: cell-based, human; settings: Homo sapiens; for inhibition at 1 µM / inhibition at 2 µM / inhibition at 4 µM / inhibition at 8 µM / inhibition at 16 µM / inhibition at 32 µM / inhibition at 64 µM / inhibition at 128 µM: SF-268, 72 h, SF268 cells, triplicate values, read-out: cell inhibition; for inhibition at 1 µM: c 1.00 μM; for inhibition at 2 µM: c 2.00 μM; for inhibition at 4 µM: c 4.00 μM; for inhibition at 8 µM: c 8.00 μM; for inhibition at 16 µM: c 16.00 μM; for inhibition at 32 µM: c 32.00 μM; for inhibition at 64 µM: c 64.00 μM; for inhibition at 128 µM: c 128.00 μM; for IC50: SF-268, MTT, 72 h, mean ± SD (n = 3), read-out: IC50 SF268
Protocol: (§2) The cytotoxicity of all compounds against three human tumor cell lines, SF-268 (CNS cancer), MCF-7 (breast cancer), and HepG2 (hepatoma cancer), and normal cell line LX-2 was tested using the MTT assay. Adriamycin was used as a positive control. All cells were seeded into 96-well plates at 5 × 10^4 cells/ml and incubated at 37°C under a 5% CO2 atmosphere for 24 h. Then, the tested compounds were added. After 72 h, MTT solution was added into each well, which was further incubated. The cell-free supernatant was removed and formazan crystals were subsequently dissolved in DMSO. Optical density (OD) was recorded at 490 nm on a microplate reader to calculate the IC50 values.

[3] = test system: HepG2 (hepatoma cancer); experiment: MTT cytotoxicity assay, HepG2 cells; type: cell-based, human; settings: Homo sapiens; for inhibition at 1 µM / inhibition at 2 µM / inhibition at 4 µM / inhibition at 8 µM / inhibition at 16 µM / inhibition at 32 µM / inhibition at 64 µM / inhibition at 128 µM: HepG2, 72 h, three replicates, read-out: cell inhibition; for inhibition at 1 µM: HepG2, c 1.00 μM; for inhibition at 2 µM: HepG2, c 2.00 μM; for inhibition at 4 µM: HepG2, c 4.00 μM; for inhibition at 8 µM: HepG2, c 8.00 μM; for inhibition at 16 µM: HepG2, c 16.00 μM; for inhibition at 32 µM: HepG2, c 32.00 μM; for inhibition at 64 µM: HepG2, c 64.00 μM; for inhibition at 128 µM: HepG2, c 128.00 μM; for IC50: HepG2, MTT, 72 h, mean ± SD (n = 3)
Protocol: as §2

[4] = test system: MCF-7 (breast cancer); experiment: MTT cytotoxicity assay, MCF-7 cells; type: cell-based, human; settings: Homo sapiens; for inhibition at 1 µM / inhibition at 2 µM / inhibition at 4 µM / inhibition at 8 µM / inhibition at 16 µM / inhibition at 32 µM / inhibition at 64 µM / inhibition at 128 µM: MCF7, 72 h, three replicates, read-out: cell inhibition; for inhibition at 1 µM: MCF-7, c 1.00 μM; for inhibition at 2 µM: MCF-7, c 2.00 μM; for inhibition at 4 µM: MCF-7, c 4.00 μM; for inhibition at 8 µM: MCF-7, c 8.00 μM; for inhibition at 16 µM: MCF-7, c 16.00 μM; for inhibition at 32 µM: MCF-7, c 32.00 μM; for inhibition at 64 µM: MCF-7, c 64.00 μM; for inhibition at 128 µM: MCF-7, c 128.00 μM; for IC50: MCF7, MTT, 72 h, mean ± SD (n = 3)
Protocol: as §1

Row | SMILES | inhibition at 1 µM [1] | inhibition at 2 µM [1] | inhibition at 4 µM [1] | inhibition at 8 µM [1] | inhibition at 16 µM [1] | inhibition at 32 µM [1] | inhibition at 64 µM [1] | inhibition at 128 µM [1] | IC50 [1] | inhibition at 1 µM [2] | inhibition at 2 µM [2] | inhibition at 4 µM [2] | inhibition at 8 µM [2] | inhibition at 16 µM [2] | inhibition at 32 µM [2] | inhibition at 64 µM [2] | inhibition at 128 µM [2] | IC50 [2] | inhibition at 1 µM [3] | inhibition at 2 µM [3] | further results
1 | CCCC(O)C1=C(C)C(=O)CC1C (stereo not drawn) [compound 4, phomotenone] | 7.34% | 9.3% | 12% | 18.1% | 24.6% | 41.1% | 70% | 87.1% | > 40 µM | 5.57% | 8.31% | 7.46% | 13.1% | 23.8% | 46.7% | 74.3% | 82.1% | > 40 µM | 6.5% | 7.63% | inhibition at 4 µM [3]: 14.3%; inhibition at 8 µM [3]: 20.2%; inhibition at 16 µM [3]: 31.4%; inhibition at 32 µM [3]: 37.3%; inhibition at 64 µM [3]: 54.7%; inhibition at 128 µM [3]: 73%; IC50 [3]: > 40 µM; inhibition at 1 µM [4]: 3.45%; inhibition at 2 µM [4]: 7.63%; inhibition at 4 µM [4]: 13.1%; inhibition at 8 µM [4]: 20.4%; inhibition at 16 µM [4]: 27.3%; inhibition at 32 µM [4]: 36.1%; inhibition at 64 µM [4]: 50.6%; inhibition at 128 µM [4]: 72.2%; IC50 [4]: > 40 µM
2 | CC1(O)CC2OC23C(C)(C)C(Cl)CCC3(C)C1C(=O)O (stereo not drawn) [compound 6, altiloxin B] | 8.12% | 11.8% | 15.9% | 26.5% | 31.3% | 40.5% | 65% | 73.5% | > 40 µM | 3.44% | 5.06% | 7.23% | 9.25% | 12.9% | 22.6% | 49.5% | 60.3% | > 40 µM | 1.37% | 5.78% | inhibition at 4 µM [3]: 10.6%; inhibition at 8 µM [3]: 14.6%; inhibition at 16 µM [3]: 19.5%; inhibition at 32 µM [3]: 26.6%; inhibition at 64 µM [3]: 63.3%; inhibition at 128 µM [3]: 79.7%; IC50 [3]: > 40 µM; inhibition at 1 µM [4]: 1.37%; inhibition at 2 µM [4]: 4.01%; inhibition at 4 µM [4]: 8.56%; inhibition at 8 µM [4]: 13%; inhibition at 16 µM [4]: 18.9%; inhibition at 32 µM [4]: 24.3%; inhibition at 64 µM [4]: 59.3%; inhibition at 128 µM [4]: 66.4%; IC50 [4]: > 40 µM
3 | CC(C)[C@@H](C)/C=C/[C@@H](C)C1CCC2C3=CC(=O)OC4=CC(=O)CC[C@]4(C)C3CC[C@@]21C (stereo partly drawn) [compound 9, fortisterol] | 9.02% | 13.6% | 18.5% | 25.5% | 31.9% | 44.7% | 79.3% | 82.5% | > 40 µM | 8.97% | 14.6% | 19.2% | 24.9% | 30.3% | 45.1% | 80.5% | 82.4% | > 40 µM | 5.37% | 11.1% | inhibition at 4 µM [3]: 15.3%; inhibition at 8 µM [3]: 20.5%; inhibition at 16 µM [3]: 31.6%; inhibition at 32 µM [3]: 48.2%; inhibition at 64 µM [3]: 75.7%; inhibition at 128 µM [3]: 89.3%; IC50 [3]: > 40 µM; inhibition at 1 µM [4]: 6.87%; inhibition at 2 µM [4]: 14.1%; inhibition at 4 µM [4]: 17.4%; inhibition at 8 µM [4]: 21.5%; inhibition at 16 µM [4]: 31.4%; inhibition at 32 µM [4]: 43.2%; inhibition at 64 µM [4]: 76.1%; inhibition at 128 µM [4]: 86.4%; IC50 [4]: > 40 µM
